Reference: paper PMC11579541, “In vitro, in vivo, and in silico approaches for evaluating the preclinical DMPK profiles of ammoxetine, a novel chiral serotonin and norepinephrine reuptake inhibitor” (Frontiers in Pharmacology, 2024)

What was measured:
CYP 2A6 = molecular target: T1, CYP 2A6 (Homo sapiens, UniProt P11509); test: CYP inhibition, cocktail-substrate method in HLM; assay type: in vitro ADME; conditions: probe coumarin
T1 construct: 0.5 mg/mL HLM, 1 mmol/L NADPH, and a cocktail of 10 probe substrates for 9 CYP isoforms; tissue BD (Woburn, USA); host or cells: pooled human liver microsomes
T1 sequence (P11509 1-494): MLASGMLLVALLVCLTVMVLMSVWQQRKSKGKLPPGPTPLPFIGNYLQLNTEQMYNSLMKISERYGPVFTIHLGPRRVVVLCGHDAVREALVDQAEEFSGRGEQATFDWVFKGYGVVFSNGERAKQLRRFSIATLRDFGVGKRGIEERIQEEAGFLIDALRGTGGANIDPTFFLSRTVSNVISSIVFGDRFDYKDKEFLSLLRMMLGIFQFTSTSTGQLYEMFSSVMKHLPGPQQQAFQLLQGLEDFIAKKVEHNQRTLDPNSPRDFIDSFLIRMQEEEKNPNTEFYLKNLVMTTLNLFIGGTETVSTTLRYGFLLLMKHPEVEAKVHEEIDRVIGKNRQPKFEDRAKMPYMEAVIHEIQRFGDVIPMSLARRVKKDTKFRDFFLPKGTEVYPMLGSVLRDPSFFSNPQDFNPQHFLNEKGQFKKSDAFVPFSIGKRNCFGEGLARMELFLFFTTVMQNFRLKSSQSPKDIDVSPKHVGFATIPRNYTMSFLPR
Description: (§1) To assess the CYP inhibition profiling of ammoxetine, a high-throughput assay based on the cocktail-substrate method was performed, as described in the literature ([Kim et al., 2005]; [Kozakai et al., 2014]). Microsomal incubations were conducted in triplicate for 30 min at 37°C in a reaction system (200 μL) consisting of […] potassium phosphate buffer (pH 7.4), 0.5 mg/mL HLM, 1 mmol/L NADPH, and a cocktail of 10 probe substrates for 9 CYP isoforms. The final concentration of each CYP-specific substrate was chosen to be close to the Michaelis-Menten constant (K m ) value of the respective substrate ([Kim et al., 2005]; [Lee et al., 2024]). For instance, phenacetin (CYP 1A2) was used at a concentration of 50 μmol/L, coumarin (CYP 2A6) at 5 μmol/L, bupropion (CYP 2B6) at 50 μmol/L, amodiaquine (CYP 2C8) at 5 μmol/L, tolbutamide (CYP 2C9) at 100 μmol/L, S-mephenytoin (CYP 2C19) at 100 μmol/L, dextromethorphan (CYP 2D6) at 5 μmol/L, chlorzoxazone (CYP 2E1) at 50 μmol/L, and testosterone and midazolam (CYP 3A4) at 50 μmol/L. Ammoxetine was evaluated at five concentrations: 0.1, 1, 10, 50, and 100 μmol/L. Additionally, a blank control without ammoxetine was included. The incubation was terminated by adding an equal volume of ice-cold acetonitrile/methanol (1:1, v/v) along with the IS, dexmedetomidine (1 ng/mL). After a 20-fold dilution, the mixture was centrifuged at 13,800×g for 10 min at 4°C. The supernatants were used to measure the levels of metabolites from the respective probe substrates using an LC-MS-MS method. The half-maximal inhibitory concentration (IC50) values were subsequently calculated.

MLM = test: Hepatic microsome stability assay, MLM; assay type: in vitro ADME, monkey; conditions: predicted hepatic clearance
Description: (§2) A hepatic microsome stability assay was conducted to investigate the metabolic disposition of ammoxetine. In this assay, 100 μL of ammoxetine (2.5 μmol/L) was incubated at 37°C with 100 μL of liver microsomes (RLM, DLM, MLM, or HLM) formulated in a 5 mmol/L dipotassium hydrogen phosphate (K2HPO4) buffer at pH 7.4. The concentration of microsomes was 0.5 g/L. To initiate the incubations, 50 μL of NADPH solution preincubated at 37°C was added. […] Parallel triplicate samples were prepared for each time point, including 0, 2, 5, 10, 15, 30, 60, 90, and 120 min. To stop the reactions at each time point, 250 μL of ice-cold precipitating agent (acetonitrile/methanol, 1:1, v/v) containing 500 ng/mL of L-phencynonate (IS) was added to the incubation mixture. The samples were vortexed for 2 min at 4°C and then centrifuged at 13,800×g for 10 min. The supernatants were analyzed using an LC-MS-MS approach. […]
(§3) In Formula 3, t1/2 (min) represents the half-life of ammoxetine in liver microsomes. It is calculated by dividing −0.693 by the resulting slope (k e) obtained from a natural logarithm plot of the remaining concentration of ammoxetine against incubation time. […]

[1] = Hepatic microsome stability assay, MLM; assay type: in vitro ADME, monkey; conditions: monkey, liver microsomes, pH 7.4; 1 μmol/L, 0.2 g/L microsomes, NADPH
Description: as §2, §3

CYP 3A4 = CYP 3A4 (Homo sapiens, UniProt P08684); test: CYP inhibition, cocktail-substrate method in HLM; assay type: in vitro ADME; design: 0.5 mg/mL HLM, 1 mmol/L NADPH, and a cocktail of 10 probe substrates for 9 CYP isoforms; tissue BD (Woburn, USA); host or cells: pooled human liver microsomes; conditions: probes testosterone and midazolam
Description: as §1

CYP 2D6 = CYP 2D6 (Homo sapiens, UniProt P10635); test: CYP inhibition, cocktail-substrate method in HLM; assay type: in vitro ADME; design: 0.5 mg/mL HLM, 1 mmol/L NADPH, and a cocktail of 10 probe substrates for 9 CYP isoforms; tissue BD (Woburn, USA); host or cells: pooled human liver microsomes
Description: as §1

CYP 2D6, sequence (P10635 whole entry, canonical isoform): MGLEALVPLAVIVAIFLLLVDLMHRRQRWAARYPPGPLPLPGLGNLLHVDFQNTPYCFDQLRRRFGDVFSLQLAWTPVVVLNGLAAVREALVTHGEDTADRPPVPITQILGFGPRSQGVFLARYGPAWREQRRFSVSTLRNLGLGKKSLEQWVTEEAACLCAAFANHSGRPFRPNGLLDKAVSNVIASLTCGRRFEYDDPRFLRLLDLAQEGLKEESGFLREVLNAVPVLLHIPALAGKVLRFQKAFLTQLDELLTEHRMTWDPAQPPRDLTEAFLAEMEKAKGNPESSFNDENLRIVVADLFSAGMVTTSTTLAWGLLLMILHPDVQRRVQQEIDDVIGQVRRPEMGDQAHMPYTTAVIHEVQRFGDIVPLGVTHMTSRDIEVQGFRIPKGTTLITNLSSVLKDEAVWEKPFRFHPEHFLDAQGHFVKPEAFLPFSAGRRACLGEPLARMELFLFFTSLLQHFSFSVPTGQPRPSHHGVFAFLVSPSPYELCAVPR
CYP 3A4, sequence (P08684 whole entry, canonical isoform): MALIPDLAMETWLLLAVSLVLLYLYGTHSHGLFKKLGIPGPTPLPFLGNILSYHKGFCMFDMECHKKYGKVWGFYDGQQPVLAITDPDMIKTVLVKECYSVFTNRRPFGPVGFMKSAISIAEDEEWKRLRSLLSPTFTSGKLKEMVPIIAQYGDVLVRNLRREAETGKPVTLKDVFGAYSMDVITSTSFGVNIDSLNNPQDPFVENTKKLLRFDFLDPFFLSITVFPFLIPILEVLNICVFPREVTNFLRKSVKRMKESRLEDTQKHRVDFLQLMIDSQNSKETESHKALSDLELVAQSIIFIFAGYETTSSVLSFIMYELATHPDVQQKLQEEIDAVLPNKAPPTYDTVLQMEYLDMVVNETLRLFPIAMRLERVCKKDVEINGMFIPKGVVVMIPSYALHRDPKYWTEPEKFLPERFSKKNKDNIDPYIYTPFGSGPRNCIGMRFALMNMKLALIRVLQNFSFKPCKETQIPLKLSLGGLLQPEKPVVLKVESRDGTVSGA

SMILES: CNCC[C@H](Oc1cccc2c1OCO2)c1cccs1 [ammoxetine]
- IC50 (CYP 2A6): > 100 µM
- CL h (MLM): 40.73 ± 0.04 mL/min/kg
- half-life at 1 μmol/L [1]: 7.57 ± 0.12 min
- IC50 (CYP 3A4): > 100 µM
- IC50 (CYP 2D6; HLM, probe dextromethorphan): > 100 µM
- probe substrate levels, % of the original blank group (CYP 2D6; ammoxetine 100 μmol/L): approximately 65.86%
